What was measured:
[1] = target: porcine pancreatic elastase (Sus scrofa, UniProt P00772); assay: Elastase inhibitory assay; assay type: biochemical; conditions: 40 µL of 1000 µg/mL stock; EGCG 250 μM
Outline: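 Porcine pancreatic elastase preincubated 15 min with diluted surfactant samples, then N-succinyl-(Ala)3-p-nitroanilide substrate added in Tris-HCl pH 8.0. Absorbance at 410 nm followed for 2 h; % inhibition from absorbance without versus with sample, in triplicate.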

[2] = system: immortal human keratinocytes (HaCaT); assay: Cell viability, NRU assay; assay type: cell-based
Experimental: (§1) The immortal human keratinocyte (HaCaT) and the squamous cell carcinoma (A431) were obtained from Celltec, University of Barcelona. The cells were grown in DMEM medium (4.5 g/L glucose) supplemented with 10% (v/v) FBS, 2 mM L-glutamine, 100 U/mL of penicillin and 100 μg/mL of streptomycin at 37 °C under 5% CO2. Cells were routinely cultured in 75 cm^2 culture flasks and were trypsinized using trypsin-EDTA when reached approximately 80% of confluence.
(§2) HaCaT cells (1 × 10^5 cells/mL) and A431 cells (5 × 10^4 cells/mL) were grown at the defined densities into the central 60 wells of a 96-well microplate. Cells were incubated for 24 h under 5% CO2 at 37 °C. The medium was then removed and the cells were incubated with the surfactants (100 μL), previously diluted 1:1 (v/v), reaching a concentration of […] in DMEM medium supplemented with 5% FBS using two different colorimetric methods for quantification, as follows.
(§3) The accumulation of the neutral red dye in the lysosomes of viable, undamaged cells constitutes the basis of the neutral red uptake (NRU) assay. After the cells were incubated for 24 h with the corresponding systems at 35.6 µg/mL, the medium was removed and the surfactants´ solutions were incubated for 3 h with the NRU dye solution (50 μg/mL) dissolved in the medium without FBS and phenol red (Lonza). Cells were then washed with sterile PBS, followed by the addition of 100 μL of a solution containing 50% ethanol absolute and 1% acetic acid in distilled water to extract the non-adhered dye. The microplates were then stirred for 5 min at 25 °C to promote the dissolution. Finally, the absorbance of the resulting solutions was measured at λ = 550 nm using a Bio-Rad 550 microplate reader (Hercules, CA, USA).

[3] = Cell viability, NRU assay; assay type: cell-based, human; conditions: human, HaCaT cells (immortal human keratinocytes); NRU, HaCaT, surfactant in solution at 35.6 µg/mL, 24 h; read-out: cellular viability
Experimental: as §1, §2, §3

bovine hyaluronidase = assay: Hyaluronidase inhibitory activity; assay type: biochemical; conditions: negative inhibition values
Outline: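 Bovine hyaluronidase (7900 units/mL working solution, 0.1 M acetate pH 3.6) was mixed 1:1 with surfactant in 5% DMSO for 20 min at 37 °C, then with CaCl2 (12.5 mM) for 20 min, then sodium hyaluronate (1.2 mg/mL) for 40 min. The p-dimethylaminobenzaldehyde colour was read at 585 nm. % inhibition = (A1−A2)/A1×100.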

porcine pancreatic elastase, sequence (P00772 27-266): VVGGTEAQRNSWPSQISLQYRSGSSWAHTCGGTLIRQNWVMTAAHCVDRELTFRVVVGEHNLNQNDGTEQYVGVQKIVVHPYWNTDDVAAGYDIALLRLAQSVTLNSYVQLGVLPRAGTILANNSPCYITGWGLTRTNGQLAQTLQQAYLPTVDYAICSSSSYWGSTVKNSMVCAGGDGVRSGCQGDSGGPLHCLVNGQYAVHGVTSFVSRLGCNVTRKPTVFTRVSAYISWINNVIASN

For `CCCCCCCCCCCC(=O)NC(CCCNC(=N)N)C(=O)NCCCNC(=O)C(CCCNC(=N)N)NC(=O)CCCCCCCCCCC` (stereo not drawn) [C3(LA)2, Bis (N^α-lauroyl arginine 1,3-propane) diamide], the “anti-elastase activity (inhibition)” value [1] was 17%, the IC50 ([2]; Homo sapiens, NRU method, HaCaT, above the highest tested concentration) was > 35.6 µg/mL and the “therapeutic index (TI), IC50/MIC ratio” value ([2]; NRU, HaCaT IC50 versus MIC against the Gram-positive bacteria, E. coli and PA01) was “higher than one”. For the same compound, the viability at 24 h, 35.6 µg/mL [3] was 66.2% and the “increase of hyaluronidase enzymatic activity” value (bovine hyaluronidase) was 48.3%.

Reference: publication PMC10536132, “Arginine Gemini-Based Surfactants for Antimicrobial and Antibiofilm Applications: Molecular Interactions, Skin-Related Anti-Enzymatic Activity and Cytotoxicity” (Molecules, 2023)
